Data published in EP0983055B1, “COMPOSITION COMPRISING AN AMINO ACID N-UNDECYLENOYL; APPLICATION IN COSMETICS” (SOCIETE D'EXPLOITATION DE PRODUITS POUR LES INDUSTRIES …, priority 1997, dated 1999).

How the values were obtained:
[1] = tested on: Aspergillus Niger; experiment: MIC (CMI) determination in liquid medium; format: cell-based; conditions: pH5, substance alone, 72 h incubation at 30°C
Procedure: (§1) On a déterminé les CMI en milieu liquide, avec un temps d'incubation de 72 heures à 30°C, à […] (bouillon Trypticase soja tamponné), du Lipacide™ UG seul, du conservateur testé seul, ainsi que du mélange des deux produits La comparaison des résultats consignés dans les tableaux suivants fait apparaître nettement une synergie anti-microbienne qui autorise ainsi une réduction de la concentration nécessaires en conservateurs chimique dans les compositions.
(§2) La composition A est diluée dans l'eau pour obtenir la composition A2 contenant 0,05 % en poids d'undécylènoyl glycine et 0,05 % en poids d'octanoyl glycine et la composition A3 contenant 0,125 % en poids d'undécylènoyl glycine et 0,125 % en poids d'octanoyl glycine.
(§3) On obtient les résultats suivants (CMI à pH5).

[2] = tested on: Staph. aureus; experiment: MIC (CMI) determination in liquid medium; format: cell-based; conditions: pH5, substance alone, 72 h incubation at 30°C
Procedure: as §1, §2, §3

C=CCCCCCCCCC(=O)NCC(=O)O [undécylènoyl glycine]
CMI [1]: 0,25%
CMI [2]: 0,01%

CCCCCCCC(=O)NCC(=O)O [octanoyl glycine]
CMI [1]: 2,5%
CMI [2]: 0,025%
